Measured values: US8022053B2, “Oral solid dosage forms containing a low dose of estradiol” (Bayer Schering Pharma Aktiengesellschaft, priority 2004, dated 2011)
Marks after values point to notes of the source that are not given here.

Key:
[1] = In vitro dissolution of micronised estradiol and estradiol/polyvinylpyrrolidone powder mixtures (USP apparatus 2, paddle); assay type: physicochemical; details: 900 ml purified water, 37° C., 50 rpm, powder corresponding to 100 μg estradiol hemihydrate
Protocol: The dissolution characteristics of micronised estradiol and mixtures of micronised estradiol and polyvinylpyrrolidone, respectively, were investigated in an in vitro dissolution test system. The dissolution tester was a USP apparatus 2 (paddle system) (See <711> of USP 27) using 900 ml of purified water temperated at 37° C. as the dissolution media and a rotation speed of 50 rpm. The estradiol and the mixtures in powdery form were placed into the dissolution vessels in an amount corresponding to 100 μg of micronised estradiol hemihydrate.

[2] = Bioavailability study, serum levels of estradiol after a single oral tablet; assay type: in vivo, healthy postmenopausal women; details: fasted, for an extended period of time
Protocol: A bioavailability study was conducted in order to determine the serum levels of estradiol after single administration of a tablet formulation identical to the one described in Example 2 containing 190 μg and 100 μg of micronised estradiol hemihydrate, respectively. The study design was open labelled, 3 periods, 3 treatments, cross-over design with a single administration of each treatment and two weeks' washout between each period. The study population were 24 healthy postmenopausal women, age 55-75. Fasted condition was held.
The full-drawn line refers to the mean serum levels of estradiol achieved by administering a single dose of 190 μg to the study population, and the dotted line refers to the mean serum levels of estradiol achieved by administering a single dose of 100 μg to the study population. The mean serum level of endogenous estradiol was 3-3.5 pg/ml.

[3] = daily oral administration of 1 to 3 mg of estradiol; cited from earlier work

Amount of estradiol (μg) dissolved after 5 min ([1]; 5 min)	Amount of estradiol (μg) dissolved after 10 min ([1]; 10 min)	Amount of estradiol (μg) dissolved after 20 min ([1]; 20 min)	Amount of estradiol (μg) dissolved after 30 min ([1]; 30 min)	Amount of estradiol (μg) dissolved after 60 min ([1]; 60 min) [µg]	Mean serum levels of estradiol ([2]; Example 2 tablet with 100 μg (printed 100 pg)) [pg/mL]	Mean serum levels of estradiol ([2]; Example 2 tablet with 190 μg) [pg/mL]	SMILES	Bioavailability [3]
<3* μg	<3* μg	<3* μg	<3* μg	<3	5 to 20	5 to 20	C[C@]12CC[C@@H]3c4ccc(O)cc4CC[C@H]3[C@@H]1CC[C@@H]2O [micronised estradiol hemihydrate, estradiol hemihydrate]	–
–	–	–	–	–	–	–	C[C@]12CC[C@@H]3c4ccc(O)cc4CC[C@H]3[C@@H]1CC[C@@H]2O [estradiol]	3-5%
